Assay results reported in PubChem BioAssay (NCI).
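Exposure lasted 48 hours, with cells grown in 96-well plates and compounds tested at five concentrations. GI50 is the concentration that inhibits growth by half. TGI marks complete inhibition of growth.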

Tests used:
Assay in all cases: NCI anticancer screen, dose series, 48 h
[1] = test system: LOX IMVI melanoma
[2] = test system: CCRF-CEM leukemia
[3] = test system: PC-3 prostate
[4] = test system: HCT-116 colon
[5] = test system: MDA-N
[6] = test system: U251 CNS
[7] = test system: UACC-257 melanoma
[8] = test system: OVCAR-3 ovarian
[9] = test system: K-562 leukemia
[10] = test system: COLO 205 colon

| SMILES | TGI [1] [µM] | TGI [2] [µM] | TGI [3] [µM] | TGI [4] [µM] | TGI [5] [µM] | TGI [6] [µM] | TGI [7] [µM] | TGI [8] [µM] | TGI [9] [µM] | TGI [10] [µM] | GI50 [2] [µM] | GI50 [3] [µM] | GI50 [10] [µM] | GI50 [7] [µM] | GI50 [8] [µM] | GI50 [9] [µM] |
| --- | --- | --- | --- | --- | --- | --- | --- | --- | --- | --- | --- | --- | --- | --- | --- | --- |
| CC(C)(C)OC(=O)N1[C@@H]2Cc3ccc(N)cc3[C@@]1(C)c1ccccc12 | 62.1 | 64.9 | > 100 | 37.1 | 45.3 | 32.4 | 78.2 | 68 | 62.6 |  |  |  |  |  |  |  |
| COc1cccc(-c2nccc3c(OCc4ccccc4)c(OC)c(OC)cc23)c1 | > 100 | > 100 |  | > 100 |  | > 100 | > 100 | > 100 | > 100 | > 100 |  |  |  |  |  |  |
| CCC(=O)/C(=C\I)c1ccccc1 | 2.96 |  | 9.34 | 3.3 | 11.2 | 4.83 | 16.7 | 3.12 | > 100 | 3.59 |  |  |  |  |  |  |
| COCC12CCC(OC)C34C5CC6(O)C(OC)CC(OC(C)=O)(C5C6OC(=O)c5ccccc5)C(C(OC)C13)C4N(C)C2 (stereo not drawn) | > 100 | > 100 | > 100 | > 100 | > 100 | > 100 | > 100 | > 100 |  | > 100 |  |  |  |  |  |  |
| COc1ccc2[nH]c(C(=O)N3CC(CCl)c4c3cc(N)c3ccccc43)cc2c1 (stereo not drawn) | 0.0223 | 0.0681 | 0.0447 | 1.09 | < 0.01 | 0.0409 |  | > 100 | > 100 | < 0.0167 |  |  |  |  |  |  |
| COc1ccc2c(c1)c1nn(CCN3CCCCC3)c3ccc4c(=O)n(CCN(C)C)c(=O)n2c4c13 | 0.178 | 0.785 | 0.603 | 0.0213 | 0.117 | 0.111 | 0.885 | 0.344 | 0.6 |  |  |  |  |  |  |  |
| O=C(c1ccc(O)c([N+](=O)[O-])c1)c1ccc(O)c([N+](=O)[O-])c1 | > 100 | > 100 | > 100 | > 100 | > 100 | > 100 | > 100 | > 100 | > 100 | > 100 |  |  |  |  |  |  |
| CCOc1ccc(/C=C2\NC(=S)N(/C=C3\C(=O)Oc4ccccc4C3=O)C2=O)cc1 | 87.5 | 40.4 | 42.3 | 39.9 |  | 78.4 | 75.8 | 44.6 |  | 43.4 |  |  |  |  |  |  |
| Cc1c2ccccc2c(C)n2c1nc1ccccc12 |  | 60.5 | 25.2 | > 100 | 25 |  | 76.4 | 21.8 | > 100 |  |  |  |  |  |  |  |
| CCCN(CCC)C1CCc2c(ccc3cc[nH]c23)C1 (stereo not drawn) |  | 73.3 | > 100 | > 100 | > 100 | > 100 | 81.2 | > 100 | > 100 | > 100 |  |  |  |  |  |  |
| C[n+]1c2ccccc2c(/C=N\NS(=O)(=O)c2ccc(Cl)cc2)c2ccccc21 | > 100 | > 100 |  | > 100 |  | > 100 | > 100 | > 100 | > 100 |  |  |  |  |  |  |  |
| Clc1ccc(C2CC(c3cccc(Nc4ccncc4)c3)=NN2c2cc(Cl)cc(Cl)c2)cc1 (stereo not drawn) |  | > 100 | 3.29 |  |  |  | 4.42 | 3.41 | 6.12 | 4.62 | 3.52 | 1.69 | 2.14 | 2.12 | 1.84 | 2.55 |
| Cc1ccc2c(C(=O)c3c(C)n(CCN4CCOCC4)c4ccccc34)cccc2c1 | 42.1 | 13 | 43.2 | 40.9 | 84.8 | 41 | 69.4 | 12.4 | > 100 |  |  |  |  |  |  |  |
| COc1ccc([C@]23CCN4COC[C@@H]([C@H]42)C2(CC3)OCC(C)(C)CO2)cc1OC | > 100 | > 100 | > 100 | > 100 | > 100 | > 100 | > 100 |  | > 100 | > 100 |  |  |  |  |  |  |
| COC([C@@H](OC(=O)c1ccccc1)[C@H](OC(=O)c1ccccc1)C(O)COC(=O)c1ccccc1)n1cc(C)c(=O)[nH]c1=O (stereo partly drawn) | > 100 |  | > 100 | 87.8 | > 100 | 58.3 | > 100 | 97.1 | > 100 | 51.9 |  |  |  |  |  |  |
| N[C@H](CCC(=O)NCP(=O)(O)O)C(=O)O |  |  | > 100 | > 100 | > 100 | > 100 | > 100 | > 100 | > 100 | > 100 |  |  |  |  |  |  |
| N#CC[N+]1(Cc2ccccn2)CCCC1 | > 100 |  | > 100 | > 100 | > 100 | > 100 | > 100 | > 100 | > 100 | > 100 |  |  |  |  |  |  |
| Cc1cc(O)cc(O)c1C(=O)O[C@]1(C)C(=O)C=C2C=C(/C=C/C(=O)O)OC=C2C1=O | > 100 | 88.3 | > 100 | > 100 | > 100 |  | > 100 | > 100 | > 100 | > 100 |  |  |  |  |  |  |
| CCCCCCCCCCCCCCCCCC(=O)Nc1ccn(C2CCC(COP(=O)(O)O)O2)c(=O)n1 (stereo not drawn) | > 100 | > 100 | > 100 | > 100 |  | > 100 | > 100 | > 100 | > 100 | > 100 |  |  |  |  |  |  |
| Nc1ccc2ccc(-c3ccc[nH]3)nc2n1 | > 100 |  | > 100 | > 100 | > 100 | > 100 | > 100 | > 100 |  | > 100 |  |  |  |  |  |  |
| N=c1oc2ccccc2cc1-c1nc2ccccc2c(=O)[nH]1 | > 100 | > 100 | > 100 | > 100 | > 100 | > 100 | > 100 |  | > 100 | > 100 |  |  |  |  |  |  |
| O=[N+]([O-])c1ccc(N2N=C(c3ccc4ccccc4c3O)CC2c2ccc(Cl)cc2)c([N+](=O)[O-])c1 (stereo not drawn) |  | 42.7 | > 100 | > 100 | 30.8 | > 100 | > 100 | 79.9 | 52 | > 100 |  |  |  |  |  |  |
| O=C(O)CNC(=O)c1ccc2cc(C(=O)N3CC(CCl)c4ccc([N+](=O)[O-])cc43)[nH]c2c1 (stereo not drawn) | > 100 | > 100 | > 100 | > 100 | > 100 | > 100 | > 100 | > 100 |  | > 100 |  |  |  |  |  |  |
